Target: T1, ADAR1 (Homo sapiens, UniProt P55265)
T1 construct: endogenous in cells; host or cells: p110 KO A549 dual cells
T1 sequence (P55265 1-1226): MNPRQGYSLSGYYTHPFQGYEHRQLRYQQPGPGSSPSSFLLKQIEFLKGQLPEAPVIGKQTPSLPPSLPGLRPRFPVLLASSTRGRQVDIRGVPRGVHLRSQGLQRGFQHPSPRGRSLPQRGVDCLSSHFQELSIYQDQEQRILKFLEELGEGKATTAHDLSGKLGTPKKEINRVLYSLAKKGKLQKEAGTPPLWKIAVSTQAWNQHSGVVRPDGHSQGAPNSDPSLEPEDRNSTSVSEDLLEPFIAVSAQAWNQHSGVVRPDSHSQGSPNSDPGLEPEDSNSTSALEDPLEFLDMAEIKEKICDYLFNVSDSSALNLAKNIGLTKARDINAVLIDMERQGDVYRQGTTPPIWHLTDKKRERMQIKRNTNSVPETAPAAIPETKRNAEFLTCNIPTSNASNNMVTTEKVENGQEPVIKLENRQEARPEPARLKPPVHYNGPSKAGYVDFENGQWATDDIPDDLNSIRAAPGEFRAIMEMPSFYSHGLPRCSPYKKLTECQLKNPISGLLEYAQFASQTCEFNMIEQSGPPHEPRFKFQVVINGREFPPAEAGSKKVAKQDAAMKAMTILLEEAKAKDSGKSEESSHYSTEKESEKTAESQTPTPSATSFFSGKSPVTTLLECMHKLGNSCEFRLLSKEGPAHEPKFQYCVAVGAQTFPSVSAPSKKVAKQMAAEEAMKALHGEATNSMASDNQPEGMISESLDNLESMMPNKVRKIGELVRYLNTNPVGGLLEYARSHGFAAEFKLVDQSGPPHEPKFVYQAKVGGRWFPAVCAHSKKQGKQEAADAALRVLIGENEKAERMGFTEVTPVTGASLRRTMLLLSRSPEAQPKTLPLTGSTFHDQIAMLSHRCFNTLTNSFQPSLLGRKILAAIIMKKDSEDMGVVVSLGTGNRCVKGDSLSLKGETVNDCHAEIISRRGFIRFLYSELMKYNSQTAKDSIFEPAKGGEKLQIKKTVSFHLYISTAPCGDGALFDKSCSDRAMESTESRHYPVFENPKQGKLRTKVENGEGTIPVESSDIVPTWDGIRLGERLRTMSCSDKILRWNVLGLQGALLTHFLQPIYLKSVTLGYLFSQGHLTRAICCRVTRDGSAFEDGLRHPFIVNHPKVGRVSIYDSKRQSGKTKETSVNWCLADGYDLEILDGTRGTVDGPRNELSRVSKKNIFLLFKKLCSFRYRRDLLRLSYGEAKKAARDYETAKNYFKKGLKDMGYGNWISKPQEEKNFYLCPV
Assay: ADAR1 Inhibition Assay (IFN fold-induction, Quanti-Luc luminescence, p110 KO A549 dual cells)
Type: cell-based
Conditions: IFN fold-induction vs DMSO, 24 and 48 h
Experimental: An ADAR1 Inhibition Assay was used to determine the biological activity (EC50) of compounds disclosed herein. 100 μL of p110 KO A549 dual cell suspension in supplemented DMEM (20,000 cells per well) was added into a flat bottom 96 well plate. Next day, post media change, 180 μL of supplemented DMEM was added. 20 μL of test compound or positive control was added to the respective wells (Final concentration of DMSO is 1%). The plate was incubated for 24 and 48 hours at 37° C. in a 5% CO2 incubator. After 24 and 48 h, 20 μL of cell suspension was taken in black well plates and 50 μL of Quanti-Luc was added to each well and luminescence was measured using a microplate reader (Spectra Max). IFN fold-induction was plotted considering DMSO as control using the relative luminescence unit (RLU) values. (Fold induction: Sample RLU/Average DMSO RLU).

Row | Compound | EC50
1 | CCOC(=O)c1cc(-c2ccccc2)sc1NC(=O)CN1CCN(S(C)(=O)=O)CC1 [Compound 143] | > 100 µM
2 | CCOC(=O)c1nc(-c2ccccc2)oc1NC(=O)COC(=O)c1cccc(NS(C)(=O)=O)c1 [Compound 145] | > 100 µM
3 | CS(=O)(=O)Nc1cccc(C(=O)OCC(=O)Nc2nnc(-c3ccccc3)s2)c1 [Compound 153] | ≤ 25 µM
4 | CCOC(=O)c1cc(-c2ccccc2)sc1NC(=O)C1CCN(C(=O)c2cccc(NS(=O)(=O)N3CCOCC3)c2)C1 (stereo not shown) [Compound 158] | > 100 µM
5 | CCOC(=O)c1cc(-c2cc[nH]n2)sc1NC(=O)COC(=O)c1cccc(NS(C)(=O)=O)c1 [Compound 159] | > 100 µM
6 | CCOC(=O)c1cc(-c2ccccc2)sc1NC(=O)COC1CCN(S(C)(=O)=O)CC1 [Compound 160] | > 100 µM
7 | CCOC(=O)c1cc(-c2ccccc2)sc1NC(=O)CC1CCN(C(=O)c2cccc(NS(C)(=O)=O)c2)CC1 [Compound 164] | > 100 µM
8 | CS(=O)(=O)Nc1cccc(C(=O)N2CCC(C(=O)Nc3nnc(-c4ccccc4)s3)C2)c1 (stereo not shown) [Compound 173] | > 100 µM
9 | CCOC(=O)c1cc(-c2ccccc2)sc1NC(=O)COC(=O)c1cccc(S(C)(=N)=O)c1 (stereo not shown) [Compound 174] | > 100 µM
10 | CCOC(=O)c1cc(-c2ccccc2)sc1NC(=O)Cn1cnc2c(N)ncnc21 [Compound 176] | > 100 µM
11 | CCOC(=O)c1cc(-c2ccccc2)sc1NC(=O)COC(=O)N1CCN(S(C)(=O)=O)CC1 [Compound 178] | > 100 µM
12 | CCOC(=O)c1cc(-c2ccccc2)sc1NC(=O)COCc1cccc(N(S(C)(=O)=O)S(C)(=O)=O)c1 [Compound 179] | > 100 µM
13 | CCOC(=O)c1cc(-c2ccccc2)sc1NC(=O)Cn1cc(-c2cccc(NS(C)(=O)=O)c2)nn1 [Compound 181] | > 100 µM
14 | CCOC(=O)c1cc(-c2ccccc2)sc1NC(=O)Cn1nncc1-c1cccc(NS(C)(=O)=O)c1 [Compound 182] | > 100 µM
15 | CCOC(=O)c1cc(-c2ccccc2)sc1NC(=O)C1CCN(Cc2cccc(NS(C)(=O)=O)c2)C1 (stereo not shown) [Compound 184] | > 100 µM
16 | CS(=O)(=O)Nc1cccc(C(=O)OCC(=O)Nc2nnc(-c3ccccc3)o2)c1 [Compound 185] | > 100 µM

Row | Compound | EC50
17 | CCOC(=O)c1cc(-c2ccccc2)sc1NC(=O)COC(=O)c1cccc(N)c1 [Compound 187] | > 100 µM
18 | CCOC(=O)c1cc(-c2ccccc2)ncc1NC(=O)COC(=O)c1cccc(NS(C)(=O)=O)c1 [Compound 189] | ≤ 25 µM
19 | CCOC(=O)c1c(NC(=O)COC(=O)c2cccc(NS(C)(=O)=O)c2)sc(-c2ccccc2)c1C [Compound 190] | > 100 µM
20 | CCOC(=O)c1cc(-c2ccccc2)sc1NC(=O)COC(=O)c1cccc(S(=O)(=O)NC(=O)CC)c1 [Compound 193] | > 100 µM
21 | CS(=O)(=O)Nc1cccc(NC(=O)CSc2nc(N)nc3nc[nH]c23)c1 [Compound 194] | > 100 µM
22 | CCOC(=O)c1cc(Cc2ccccc2)sc1NC(=O)COC(=O)c1cccc(NS(C)(=O)=O)c1 [Compound 196] | > 100 µM
23 | CCOC(=O)c1cc(-c2ccccc2C#N)sc1NC(=O)COC(=O)c1cccc(NS(C)(=O)=O)c1 [Compound 197] | > 100 µM
24 | CCOC(=O)c1cc(-c2ccc(N3CCNCC3)cc2)sc1NC(=O)COC(=O)c1cccc(NS(C)(=O)=O)c1 [Compound 198] | > 100 µM
25 | CCOC(=O)c1cc(-c2ccccc2)sc1NC(=O)COC(=O)c1cccc(N(C)C)c1 [Compound 199] | > 100 µM
26 | CS(=O)(=O)Nc1cccc(C(=O)OCC(=O)n2cnc3cnc(N)nc32)c1 [Compound 200] | > 100 µM
27 | CCOC(=O)c1cc(-c2ccccc2OC(F)(F)F)sc1NC(=O)COC(=O)c1cccc(NS(C)(=O)=O)c1 [Compound 201] | > 100 µM
28 | CCOC(=O)c1cc(-c2cccc(OC(F)(F)F)c2)sc1NC(=O)COC(=O)c1cccc(NS(C)(=O)=O)c1 [Compound 202] | > 100 µM
29 | CC(C)(C)OC(=O)COC(=O)c1cc(-c2ccccc2)sc1NC(=O)COC(=O)c1cccc(NS(C)(=O)=O)c1 [Compound 203] | > 100 µM
30 | CCOC(=O)c1cc(C)sc1NC(=O)COC(=O)c1cccc(NS(C)(=O)=O)c1 [Compound 204] | > 100 µM
31 | CCOC(=O)c1cc(-c2ccc(OC)cc2)sc1NC(=O)COC(=O)c1cccc(NS(C)(=O)=O)c1 [Compound 205] | > 100 µM
32 | CCOC(=O)c1nc(-c2ccccc2)sc1NC(=O)C1CCN(C(=O)c2cccc(NS(C)(=O)=O)c2)C1 (stereo not shown) [Compound 206] | > 100 µM

Results, then the compound that gave them:

Row | EC50 | Compound
33 | > 100 µM | CCOC(=O)c1cc(-c2ccccc2)sc1NC(=O)C1CCN1C(=O)c1cccc(NS(C)(=O)=O)c1 (stereo not shown) [Compound 146]
34 | > 100 µM | CCOC(=O)c1cc(-c2ccccc2)sc1NC(=O)C1CC2(CC2)CN1C(=O)c1cccc(NS(C)(=O)=O)c1 (stereo not shown) [Compound 148]
35 | > 100 µM | CCOC(=O)c1cc(-c2ccccc2)sc1NC(=O)/C=C/c1cccc(NS(C)(=O)=O)c1 [Compound 149]
36 | > 100 µM | CCOC(=O)c1cc(-c2ccccc2)sc1NC(=O)CN(C)C(=O)c1cccc(NS(C)(=O)=O)c1 [Compound 151]
37 | > 100 µM | CCOC(=O)c1cc(-c2ccccc2)sc1NC(=O)C1CCCN(C(=O)c2cccc(NS(C)(=O)=O)c2)C1 (stereo not shown) [Compound 152]
38 | > 100 µM | CS(=O)(=O)Nc1cccc(C(=O)OCC(=O)Nc2sc(-c3ccccc3)cc2C(=O)O)c1 [Compound 154]
39 | > 100 µM | CCOC(=O)c1cc(-c2ccccc2)sc1NC(=O)CN(C(=O)c1cccc(NS(C)(=O)=O)c1)C1CC1 [Compound 155]
40 | ≤ 25 µM | CCOC(=O)c1cc(-c2ccccc2)sc1NC(=O)[C@H]1CCN(C(=O)c2cccc(NS(C)(=O)=O)c2)C1 [Compound 156]
41 | > 100 µM | CCOC(=O)c1cc(-c2ccccc2)sc1NC(=O)[C@H]1CCN(C(=O)c2cccc(NS(C)(=O)=O)c2)C1 [Compound 157]
42 | > 100 µM | CCOC(=O)c1cc(-c2ccccc2)sc1NC(=O)CN(C(=O)c1cccc(NS(C)(=O)=O)c1)C(C)C [Compound 162]
43 | > 100 µM | CCOC(=O)c1cc(-c2ccccc2)sc1NC(=O)CCc1cccc(NS(C)(=O)=O)c1 [Compound 165]
44 | > 100 µM | CCOC(=O)c1cc(-c2ccccc2)sc1NC(=O)COC(=O)Nc1cccc(NS(C)(=O)=O)c1 [Compound 166]
45 | > 100 µM | CCOC(=O)c1cc(-c2ccccc2)sc1NC(=O)N1CCN(C(=O)c2cccc(NS(C)(=O)=O)c2)CC1 [Compound 167]
46 | > 100 µM | CCOC(=O)c1cc(-c2ccccc2)sc1NC(=O)C1CCN(C(=O)c2cccc(NS(C)(=O)=O)c2)CC1 [Compound 168]
47 | > 100 µM | CCOC(=O)c1cc(-c2ccccc2)sc1NC(=O)CCNc1cccc(NS(C)(=O)=O)c1 [Compound 169]
48 | > 100 µM | CCOC(=O)c1cc(-c2ccncc2)sc1NC(=O)COC(=O)c1cccc(NS(C)(=O)=O)c1 [Compound 170]
49 | > 100 µM | CCOC(=O)c1cc(-c2ccccc2)sc1NC(=O)COC(=O)c1cccc(CNS(C)(=O)=O)c1 [Compound 177]
50 | > 100 µM | CCOC(=O)c1cc(-c2ccccc2)sc1NC(=O)COC(=O)c1cccc(NS(C)(=O)=O)n1 [Compound 183]
51 | > 100 µM | CN(C)C(=O)c1cc(-c2ccccc2)sc1NC(=O)COC(=O)c1cccc(NS(C)(=O)=O)c1 [Compound 186]
52 | > 100 µM | CCOC(=O)c1cc(-c2ccccc2F)sc1NC(=O)COC(=O)c1cccc(NS(C)(=O)=O)c1 [Compound 188]
53 | > 100 µM | COC(=O)c1cc(-c2ccccc2)sc1NC(=O)COC(=O)c1cccc(NS(C)(=O)=O)c1 [Compound 191]
54 | > 100 µM | CCOC(=O)c1cc(-c2cccc(C)c2)sc1NC(=O)COC(=O)c1cccc(NS(C)(=O)=O)c1 [Compound 192]
55 | > 100 µM | CCOC(=O)c1cc(-c2ccccc2)sc1NC(=O)C(C)OC(=O)c1cccc(NS(C)(=O)=O)c1 (stereo not shown) [Compound 195]
